Source: patent publication US20100275276A1, “ZEBRAFISH MODEL FOR ASSESSING GASTROINTESTINAL MOTILITY” (THE RESEARCH FOUNDATION OF STATE UNIVERSITY OF NEW YORK, priority 2006, published 2010)
Structures can show the parent of a compound that is named as a salt. Where two headings read alike, the source gives them in different places.

Legend:
zebrafish larvae [1] = test: Fluorescent microsphere spectrophotometric assay of propulsive GI motility; type: in vivo; settings: for Reduction of fluorescence intensity: 11 dpf larvae, one day after loading; for Total fluorescence intensity one day after loading: 11 day old larvae, 10^−5 mg/ml, n=5
Text: Gastrointestinal (GI) motility disorders such as constipation and dyspepsia are common, but current treatment options are largely ineffective, primarily due to a limited understanding of GI motility. The broad objective is to develop a new zebrafish-based model system for GI motility. Muscular contractions of the GI tract may be directly observed in a zebrafish larva, and GI motility has been quantified as contraction frequency. […] The specific objective of this project is to develop an assay to specifically measure propulsion of luminal contents. […] A decrease in fluorescence emission would indicate that ingested microspheres have been eliminated via propulsive motility. Fluorescence spectroscopy was used to quantify the fluorescence intensity as a function of time.
Total fluorescence emission averaged 62,630±23,780 counts per sec (n=5 samples, 5 larvae grouped per sample) immediately after ingestion in 11 day old larvae. One day later total fluorescence intensity averaged 53,277±6,333 counts per sec, a 15% decrease (n=5, P<0.05). […] Two prokinetic agents, erythromycin and 5-hydroxytryptamine (10^−5 mg/ml), were used to validate the assay. One day after loading, the total fluorescence intensity decreased after application of erythromycin (69,782±10,423, n=5, P<0.09) and with 5 HT (86,820±21,850, n=5, P<0.003).
After larvae spontaneously ingest the fluorescent micro spheres, which were suspended in the medium that the larvae are in, the larvae were washed and separated into 2 groups. The first group was sacrificed and mashed. The total fluorescence emission was measured from the ‘mashed’ larvae. The second group was sacrificed some time later. If GI motility is functional then some fraction of the micro spheres will have been excreted as a result of GI propulsive motility. The second group was sacrificed and mashed and total fluorescence emission was measured.
The difference between Group 1 and Group 2 represents the fraction of beads that has been excreted and this difference is a measure of functional GI propulsive motility.

zebrafish larvae [2] = test: Spatiotemporal mapping of spontaneous GI motility; type: in vivo; settings: 11 dpf larvae treated with 50 μM Gleevec
Text: Spontaneous GI motility occurs at regular intervals and propagates along the GI tract at 11 dpf when ICC are fully present in the GI tract.
This Example uses digital imaging and image processing techniques to quantify coordinated GI motility. […] These types of motility can be distinguished in time-lapse digital images.
This Example uses a technique, spatiotemporal mapping, that converts a series of images into a single image with dimensions of time and distance. This single image supplies data on movement, and therefore propagation contractions can be visualized and quantified.

zebrafish larvae [3] = test system: zebrafish larvae
[4] = 14 dpf Gleevec treated larvae, Table 1 of Example 8
[5] = 14 dpf Gleevec treated larvae, per 300 second interval, Table 1 of Example 8
[6] = 14 dpf larvae, imatinib mesylate 50 μM added at 5 dpf, n = 3
[7] = imatinib mesylate 50 μM added at 5 dpf

SMILES	Reduction of fluorescence intensity (zebrafish larvae [1]) [%]	Total fluorescence intensity one day after loading (zebrafish larvae [1])	Spontaneous motility (spatiotemporal map) (zebrafish larvae [2])	Distance (zebrafish larvae [3]; [4]) [μm]	Velocity (zebrafish larvae [3]; [4]) [μm/sec]	Total # contractions, Average (zebrafish larvae [3]; [5])	Total # contractions, Total (zebrafish larvae [3]; [5])	Distance (zebrafish larvae [3]; [6]) [μm]	Velocity (zebrafish larvae [3]; [6]) [μm/sec]	Total # contractions/300 sec (zebrafish larvae [3]; 14 dpf larvae, imatinib mesylate 50 μM added to medium at 5 dpf, n = 3) [contractions/300 sec]	Contractions in treated 14 dpf larvae (description) (zebrafish larvae [3]; Gleevec treated 14 dpf larvae)	Character of the remaining contractions (zebrafish larvae [3]; [7])	Effect on number of contractions (zebrafish larvae [3]; [7])
NCCc1c[nH]c2ccc(O)cc12 [5-hydroxytryptamine]	53	86,820±21,850 counts per sec											
CC[C@H]1OC(=O)[C@H](C)[C@@H](O[C@H]2C[C@@](C)(OC)[C@@H](O)[C@H](C)O2)[C@H](C)[C@@H](O[C@@H]2O[C@H](C)C[C@H](N(C)C)[C@H]2O)[C@](C)(O)C[C@@H](C)C(=O)[C@H](C)[C@@H](O)[C@]1(C)O [erythromycin]	23	69,782±10,423 counts per sec											
Cc1ccc(NC(=O)c2ccc(CN3CCN(C)CC3)cc2)cc1Nc1nccc(-c2cccnc2)n1 [imatinib mesylate]			absent	399.8 ± 67.2	10.2 ± 3.1	2.3 ± 0.58	7	399.8 ± 67.2	10.2 ± 3.1	7	few contractions which were variable and did not fully propagate	unorganized, shorter and slower	decrease in the number of contractions
